Counter-ions that a name gives are not always drawn.
Key:
[1] = test system: corneal neovascularization; assay: Corneal Neovascularization Model; format: in vivo, mice; details: 100 mg/kg, PO, days 1-10
Method: Corneal Neovascularization Model
The sustained release preparations of angiogenic agents (ELVAX pellet) were prepared by solvent casting. […] The solvent was then evaporated, leaving the angiogenic agent in the polymeric matrix
Mice were anesthetized using a 1-1.5 ml/kg solution containing a mixture of 70% ketamine hydrochloride (100 mg/ml) and 30% xylazine (20 mg/ml). Using sterile surgical technique, an ELVAX pellet containing either basic FGF (100 ng) or VEGF (400 ng) was implanted into a previously dissected intrastromal corneal pocket 0.5 mm from the corneoscleral limbus. Following implantation the implantation site margins were reapposed and the eyes were treated with topical antibiotic ointment (bacitracin/neomycin/polymixin). On various days (between postoperative days 4 and 18) the extent of neovascularization was measured.
Neovascularization was monitored by measurements of new vessel growth within the previously avascular cornea. This parameter was obtained by measuring with calipers under microscopic magnification the length of the base of the neovascular bed at the limbus. The area of neovascularization,which is typically triangular, was calculated by dividing the product of the length of the vessel and the base length by two. Data was statistically analyzed via Student-t-test of Log Relative Reduction of Neovascularization. A p-value (p≤0.05) indicates a statistically significant reduction in neovascularization of Treated Group, compared to Placebo Control.

[2] = test system: VEGF 165-induced vascular permeability; assay: Inhibition of Vascular Permeability Assay (Miles Assay); format: in vivo, BALB/c female mice; details: 100 mg/kg, PO
Method: Inhibition of Vascular Permeability Assay (Miles Assay) This assay was performed using BALB/c female mice (Charles River, Wilmington, Mass.). Both sides of the animals were shaved between 24 and 48 hours before the start of the assay. There were 10 animals per experimental group. […] One half hour later the animals were sacrificed by CO2 inhalation. […] Data was statistically analyzed via Student-t-test. A p-value (p≤0.05) indicates a statistically significant difference between the area of vascular permeability of the vehicle control verses the experimental group. Data was statistically analyzed via Student-t-test of Log Relative Area of Permiability. A p-value (p≤0.05) indicates a statistically significant reduction in permeability of Treated Group, compared to Placebo Control.

Method for KDR: Inhibition of Binding of VEGF 165 to KDR & Flt-1 Receptors as Measured by SPA Assay
Preparation of conditioned media containing the KDR-Fc soluble VEGF receptor.:
Human 293KDR2 cells, which secrete a soluble KDR-Fc fusion protein, were grown in Dulbecco's Modified Eagle Medium supplemented with 10% fetal calf serum, 2 mM glutamine, 10 units/ml penicillin G sulfate, 10 μg/ml streptomycin sulfate and 175 μg/ml geneticin (G418) sulfate. Cells were plated at a density of 10^6 cells/100 mm dish and incubated at 37° C. in a humidified atmosphere containing 95% air and 5% CO2. After 10 days, conditioned medium was collected and centrifuged at 15,000 rpm for 15 min to remove dead cells. A total of 0.1 volume of 1.15% gelatin and 0.02 volume of 1M HEPES buffer (pH 8) was added. Leupeptin and pepstatin A were added to 1 μg/ml each.
Preparation of ^125 I-labelled VEGF ligand:
Recombinant human ^125 T-labelled VEGF 165 was purchased from Amersham (3,800 cpm/fmol). ^125,-labelled VEGF was diluted in DMEM supplemented with gelatin (0.15%) and HEPES buffer (20 mM) to a final concentration of 40,000 cpm/25 μl.
Preparation of SPA beads:
SPA PVT antibody-binding beads were purchased from Amersham. Each bottle of SPA beads (500 mg) was reconstituted in 25 ml of DMEM supplemented with gelatin (0.15%) and HEPES buffer (20 mM). The bottle contents were well mixed (15 min with a stir bar at room temperature).
SPA assays were performed in flat-bottom polystyrene 96 well microtitre plates.
(a) Pipette 50 μl of SPA beads to well.
(b) Pipette 25 μl of conditioned medium to well.
(d) Pipette 25 μl of ^125 J-VEGF 165 to well.
The appropriate control wells were set up to measure non-specific binding, solvent effect, etc. The assays were run in duplicate or triplicate wells. Plates were sealed and incubate at room temperature without shaking for 5 to 20 hours. Plates were then counted in a Packard TopCount microtitre plate liquid scintillation counter.
A typical assay gave 3,000 to 6,000 cpm bound. Background binding (measured in the presence of 100-fold molar excess of unlabelled VEGF 165) was typically 200 to 300 cpm bound. Compounds were tested at 30, 10, 3, 1, 0.3 and 0.1 μg/ml in DMSO. […] Half maximal binding was determined by the following equation:
s=maximal cpm bound in the absence of compound.
The IC50 values were determined graphically by the following procedure:
A graph was drawn plotting compound concentration (x-axis) versus cpm bound (y-axis).
The half maximal binding was calculated using the equation above.
A horizontal line (LINE A) was drawn which intersects the y-axis at the half maximal binding value.
A vertical line (LINE B) was drawn through the point where LINE A intersects the inhibition curve.
The point where LINE B intersects the x-axis was extrapolated from the graph to give the IC50 value.

Structure (SMILES): COc1ccc(C=CC(=O)Nc2cc3sc4cc(NC(=O)C=Cc5ccc(OC)c(OC)c5Cl)c(C(=O)[O-])cc4c3cc2C(=O)[O-])c(Cl)c1OC.[Na+].[Na+]
- Inhibition of Corneal Neovascularization ([1]; Day 4): 11%
- Inhibition of Corneal Neovascularization ([1]; Day 8): 24%
- Inhibition of Corneal Neovascularization ([1]; Day 11): 29%
- Inhibition of Corneal Neovascularization ([1]; Day 13): 37%

Structure (SMILES): O=C(Nc1cc2sc3cc(NC(=O)c4cc5ccccc5s4)c(C(=O)O)cc3c2cc1C(=O)O)c1cc2ccccc2s1 [Example 2, 3,7-Bis-r(benzo[b]thiophene-2-carbonyl)amino]dibenzothiophene-2,8-dicarboxylic acid, disodium salt]
- % Control ([2]; 4 hr prior to VEGF): 57%
- Lesion Area (measured area of vascular permeability) ([2]; 4 hr prior to VEGF): 34.0 mm^2
- IC50 (KDR): 1.5 mg/L

Structure (SMILES): O=C(C=Cc1ccc(-c2ccccc2)cc1)Nc1cc2c(cc1S(=O)(=O)O)-c1cc(S(=O)(=O)O)c(NC(=O)C=Cc3ccc(-c4ccccc4)cc3)cc1S2(=O)=O [Example 24, 3,7-Bis-[3-(4-phenylphenyl)acryloylamino]-5,5-dioxo-5H-5λ^6-dibenzothiophene-2,8-disulfonic acid, disodium salt]
- % Control ([2]; 1 hr prior to VEGF): 55%
- Lesion Area (measured area of vascular permeability) ([2]; 1 hr prior to VEGF): 25.8 mm^2
- % Control ([2]; 2 hr prior to VEGF): 80%
- Lesion Area (measured area of vascular permeability) ([2]; 2 hr prior to VEGF): 37.8 mm^2
- % Control ([2]; 4 hr prior to VEGF): 49%
- Lesion Area (measured area of vascular permeability) ([2]; 4 hr prior to VEGF): 23.1 mm^2
- IC50 (KDR): 0.8 mg/L

Structure (SMILES): O=Cc1ccc(/C=C/C(=O)Nc2cc3c(cc2S(=O)(=O)O)-c2cc(S(=O)(=O)O)c(NC(=O)/C=C/c4ccc(C=O)cc4)cc2S3(=O)=O)cc1 [Example 29, 3,7-Bis-[3-(4-formylphenyl)-acryloylamino]-5,5-dioxo-5H-5^6-dibenzothiophene-2,8-disulfonic acid, disodium salt]
- % Control ([2]; 4 hr prior to VEGF): 81%
- Lesion Area (measured area of vascular permeability) ([2]; 4 hr prior to VEGF): 76.5 mm^2
- IC50 (KDR): 0.5 mg/L

Structure (SMILES): COc1ccccc1C=CC(=O)Nc1cc2c(cc1S(=O)(=O)O)-c1cc(S(=O)(=O)O)c(NC(=O)C=Cc3ccccc3OC)cc1S2(=O)=O [Example 37, 3,7-Bis-[3-(2-methoxyphenyl)-acryloylamino]-5,5-dioxo-5H-5^6-dibenzothiophene-2,8-disulfonic acid, disodium salt]
- IC50 (KDR): 2 mg/L

Structure (SMILES): O=C(/C=C/c1cccc(C(F)(F)F)c1)Nc1cc2c(cc1S(=O)(=O)O)-c1cc(S(=O)(=O)O)c(NC(=O)/C=C/c3cccc(C(F)(F)F)c3)cc1S2(=O)=O [Example 38, 3,7-Bis-[3-(3-trifluoromethyl-phenyl)acryloyl-amino]-5,5-dioxo-5H-5^6-dibenzothiophene-2,8-disulfonic acid, disodium salt]
- IC50 (KDR): 5 mg/L

Structure (SMILES): O=C(Nc1cc2c(cc1S(=O)(=O)O)-c1cc(S(=O)(=O)O)c(NC(=O)c3cc4ccccc4s3)cc1S2(=O)=O)c1cc2ccccc2s1 [Example 40, 3,7-Bis-[(benzo[b]thiophene-2-carbonyl)amino]-5,5-dioxo-5H-5^ -dibenzothiophene-2,8-disulfonic acid, disodium]
- IC50 (KDR): 4 mg/L

Structure (SMILES): O=C(Nc1cc2c(cc1S(=O)(=O)O)-c1cc(S(=O)(=O)O)c(NC(=O)c3cc4ccccc4o3)cc1S2(=O)=O)c1cc2ccccc2o1 [Example 42, 3,7-Bis[(benzo[b]furan-2-carbonyl)amino]-5,5-dioxo-5H-5^6-dibenzothiophene-2,8-disulfonic acid, disodium salt]
- % Control ([2]; 2 hr prior to VEGF): 74%
- Lesion Area (measured area of vascular permeability) ([2]; 2 hr prior to VEGF): 40.0 mm^2
- Lesion Area (measured area of vascular permeability) ([2]; 2 hr prior to VEGF, disodium salt): 33.5 mm^2
- % Control ([2]; 4 hr prior to VEGF): 69%
- Lesion Area (measured area of vascular permeability) ([2]; 4 hr prior to VEGF): 31.1 mm^2
- IC50 (KDR): 0.6 mg/L

Structure (SMILES): O=C(Nc1cc2c(cc1S(=O)(=O)O)-c1cc(S(=O)(=O)O)c(NC(=O)c3cc4sccc4s3)cc1S2(=O)=O)c1cc2sccc2s1 [Example 43, 5,5-Dioxo-3,7-bis-[(thieno[3,2-b]thiophene-2-carbonyl)-amino]-5H-5^6-dibenzothiophene-2,8-disulfonic acid, disodium]
- IC50 (KDR): 0.6 mg/L

Structure (SMILES): Cc1nn(C)c2sc(C(=O)Nc3cc4c(cc3S(=O)(=O)O)-c3cc(S(=O)(=O)O)c(NC(=O)c5cc6c(C)nn(C)c6s5)cc3S4(=O)=O)cc12 [Example 44, 3,7-Bis-[(1,3-di-methyl-1H-thieno[2,3-c]pyrazole-5-carbonyl)amino]-5,5-dioxo-5H-5^6-dibenzothiophene-2,8-disulfonic acid, disodium salt]
- IC50 (KDR): 1.5 mg/L

Structure (SMILES): O=C(Nc1cc2c(cc1S(=O)(=O)O)-c1cc(S(=O)(=O)O)c(NC(=O)c3cnn(-c4ccccc4)n3)cc1S2(=O)=O)c1cnn(-c2ccccc2)n1 [Example 46, 5,5-Dioxo-3,7-bis-[(2-phenyl-2H-[1,2,3]triazole-4-carbonyl)amino]-5H-5^6-dibenzothiophene-2,8-disulfonic acid, disodium salt]
- IC50 (KDR): 5 mg/L

Structure (SMILES): COc1ccc2cc(C(=O)Nc3cc4c(cc3S(=O)(=O)O)-c3cc(S(=O)(=O)O)c(NC(=O)c5cc6ccc(OC)cc6oc5=O)cc3S4(=O)=O)c(=O)oc2c1 [Example 47, 3,7-Bis-[(7-methoxy-2-oxo-benzopyran-3-yl)-carbonylamino]-5,5-dioxo-5H-5^6-dibenzothiophene-2,8-disulfonic acid, disodium salt]
- % Control ([2]; 4 hr prior to VEGF): 71%
- Lesion Area (measured area of vascular permeability) ([2]; 4 hr prior to VEGF): 32.8 mm^2
- IC50 (KDR): 0.5 mg/L

Structure (SMILES): COc1ccc(C(=O)Nc2cc3c(cc2S(=O)(=O)O)-c2cc(S(=O)(=O)O)c(NC(=O)c4ccc(OC)cc4)cc2S3(=O)=O)cc1 [Example 50, 3,7-Bis-(4-methoxybenzoyl-amino)-5,5-dioxo-5H-5^6-dibenzothiophene-2,8-disulfonic acid, disodium salt]
- IC50 (KDR): 5 mg/L

Structure (SMILES): COc1ccc(C(=O)Nc2cc3c(cc2S(=O)(=O)O)-c2cc(S(=O)(=O)O)c(NC(=O)c4ccc(OC)cc4OC)cc2S3(=O)=O)c(OC)c1 [Example 51, 3,7-Bis-(2,4-dimethoxybenzoyl-amino)-5,5-dioxo-5H-5^6-dibenzothiophene-2,8-disulfonic acid disodium salt]
- IC50 (KDR): 5 mg/L

Structure (SMILES): O=C(Nc1cc2c(cc1S(=O)(=O)O)-c1cc(S(=O)(=O)O)c(NC(=O)c3ccc(S(=O)(=O)c4ccccc4)cc3)cc1S2(=O)=O)c1ccc(S(=O)(=O)c2ccccc2)cc1 [Example 52, 5,5-Dioxo-3,7-bis-(4-phenyl-sulfonylbenzoyl-amino)-5H-5^6-dibenzothiophene-2,8-disulfonic acid, disodium salt]
- IC50 (KDR): 7 mg/L

Structure (SMILES): CCOc1cc2ccccc2cc1C(=O)Nc1cc2c(cc1S(=O)(=O)O)-c1cc(S(=O)(=O)O)c(NC(=O)c3cc4ccccc4cc3OCC)cc1S2(=O)=O [Example 53, 3,7-Bis-(3-ethoxy-naphthalen-2-ylcarbonylamino)-5,5-dioxo-5H-5^6-dibenzothiophene-2,8-disulfonic acid, disodium salt]
- IC50 (KDR): 7 mg/L

Structure (SMILES): O=C(Nc1cc2c(cc1S(=O)(=O)O)-c1cc(S(=O)(=O)O)c(NC(=O)c3ccc4ccccc4c3)cc1S2(=O)=O)c1ccc2ccccc2c1 [Example 57, 3,7-Bis-[(naphthalen-2-yl)carbonylamino]-5,5-dioxo-5H-5^6-dibenzothiophene-2,8-disulfonic acid, disodium salt]
- IC50 (KDR): 5 mg/L

Structure (SMILES): COc1ccc(C(=O)Nc2ccc(C(=O)Nc3cc4c(cc3S(=O)(=O)O)-c3cc(S(=O)(=O)O)c(NC(=O)c5ccc(NC(=O)c6ccc(OC)cc6OC)cc5OC)cc3S4(=O)=O)c(OC)c2)c(OC)c1 [Example 58, 3,7-Bis-({4-[(2,4-dimethoxy-phenyl)carbonyl-amino]-2-methoxy-phenyl}carbonyl-amino)-5,5-dioxo-5H-5^6-dibenzothiophene-2,8-disulfonic acid, disodium salt]
- IC50 (KDR): 1.5 mg/L

Structure (SMILES): COc1cc(NC(C)=O)ccc1C(=O)Nc1cc2c(cc1S(=O)(=O)O)-c1cc(S(=O)(=O)O)c(NC(=O)c3ccc(NC(C)=O)cc3OC)cc1S2(=O)=O [Example 59, 3,7-Bis-[(4-acetylamino-2-methoxy-phenyl)carbonylamino]-5,5-dioxo-5H-5^6-dibenzothiophene-2,8-disulfonic acid, disodium salt]
- IC50 (KDR): 6 mg/L

Structure (SMILES): O=C(Nc1ccc(C(=O)Nc2cc3c(cc2S(=O)(=O)O)-c2cc(S(=O)(=O)O)c(NC(=O)c4ccc(NC(=O)c5ccccc5)cc4)cc2S3(=O)=O)cc1)c1ccccc1 [Example 60, 3,7-Bis-(4-benzoylaminobenzoylamino)-5,5-dioxo-5H-5^6-dibenzothiophene-2,8-disulfonic acid, disodium salt]
- IC50 (KDR): 0.5 mg/L

Structure (SMILES): COc1ccc(C=CC(=O)Nc2cc3sc4cc(NC(=O)C=Cc5ccc(OC)c(OC)c5Cl)c(C(=O)[O-])cc4c3cc2C(=O)[O-])c(Cl)c1OC.[Na+].[Na+] [disodium salt]
- IC50 (KDR): 3 mg/L
